Data taken from patent publication US10770169B2, “Method of providing a treatment to a subject based on a dynamic pathway map” (THE REGENTS OF THE UNIVERSITY OF CALIFORNIA, priority 2010, dated 2020).

System: panel of 55 breast cancer cell lines
Assay: Cell growth inhibition assay (Cell Titer Glo, 72 h, 9 doses; GI50, TGI, LC50)
Format: cell-based, human
[1] = HCC70 cell line, censored GI50 values, value is the negative log10 of mol/L
[2] = HCC1428 cell line, censored GI50 values, value is the negative log10 of mol/L
[3] = HCC2185 cell line, censored GI50 values, value is the negative log10 of mol/L
[4] = HCC3153 cell line, censored GI50 values, value is the negative log10 of mol/L
[5] = MDAMB134VI cell line, censored GI50 values, value is the negative log10 of mol/L
[6] = MDAMB175VII cell line, censored GI50 values, value is the negative log10 of mol/L
[7] = SUM52PE cell line, censored GI50 values, value is the negative log10 of mol/L
[8] = SUM225CWN cell line, censored GI50 values, value is the negative log10 of mol/L
[9] = SUM1315MO2 cell line, censored GI50 values, value is the negative log10 of mol/L
[10] = T47D cell line, censored GI50 values, value is the negative log10 of mol/L
[11] = cell line AU565, value is the negative log10 of mol/L
[12] = cell line BT474, value is the negative log10 of mol/L
[13] = cell line BT483, value is the negative log10 of mol/L
[14] = cell line BT549, value is the negative log10 of mol/L
[15] = cell line CAMA1, value is the negative log10 of mol/L
[16] = cell line HCC38, value is the negative log10 of mol/L
[17] = cell line HCC70, value is the negative log10 of mol/L
[18] = cell line HCC202, value is the negative log10 of mol/L
[19] = cell line HCC1143, value is the negative log10 of mol/L
[20] = cell line HCC1187, value is the negative log10 of mol/L
[21] = cell line HCC1395, value is the negative log10 of mol/L
[22] = cell line HCC1419, value is the negative log10 of mol/L
[23] = cell line HCC1428, value is the negative log10 of mol/L
[24] = cell line HCC1500, value is the negative log10 of mol/L
[25] = cell line HCC1806, value is the negative log10 of mol/L
[26] = cell line HCC1937, value is the negative log10 of mol/L
[27] = cell line HCC1954, value is the negative log10 of mol/L
[28] = cell line HCC2185, value is the negative log10 of mol/L
[29] = cell line HCC3153, value is the negative log10 of mol/L
[30] = cell line LY2, value is the negative log10 of mol/L
[31] = cell line MCF7, value is the negative log10 of mol/L
[32] = cell line MDAMB157, value is the negative log10 of mol/L
[33] = cell line MDAMB175V, value is the negative log10 of mol/L
[34] = cell line MDAMB361, value is the negative log10 of mol/L
[35] = cell line MDAMB453, value is the negative log10 of mol/L
[36] = cell line MDAMB468, value is the negative log10 of mol/L
[37] = cell line SKBR3, value is the negative log10 of mol/L
[38] = cell line SUM52PE, value is the negative log10 of mol/L
[39] = cell line SUM149PT, value is the negative log10 of mol/L
[40] = cell line SUM1315MO, value is the negative log10 of mol/L
[41] = cell line UACC812, value is the negative log10 of mol/L
[42] = cell line UACC893, value is the negative log10 of mol/L
[43] = cell line ZR75B, value is the negative log10 of mol/L
[44] = cell line ZR751, value is the negative log10 of mol/L

## O=c1[nH]c(=O)n([C@H]2C[C@H](O)[C@@H](CO)O2)cc1F [5-FdUR]
AU565 cell line, censored GI50 values, value is the negative log10 of mol/L
  GI50: 4.97
BT20 cell line, censored GI50 values, value is the negative log10 of mol/L
  GI50: 3.49
BT474 cell line, censored GI50 values, value is the negative log10 of mol/L
  GI50: 3.29
BT483 cell line, censored GI50 values, value is the negative log10 of mol/L
  GI50: 4.13
CAMA1 cell line, censored GI50 values, value is the negative log10 of mol/L
  GI50: 3.92
HCC38 cell line, censored GI50 values, value is the negative log10 of mol/L
  GI50: 4.00
[1]
  GI50: 3.67
HCC1143 cell line, censored GI50 values, value is the negative log10 of mol/L
  GI50: 4.02
HCC1187 cell line, censored GI50 values, value is the negative log10 of mol/L
  GI50: 3.81
HCC1395 cell line, censored GI50 values, value is the negative log10 of mol/L
  GI50: 3.60
HCC1419 cell line, censored GI50 values
  GI50: 2.73
[2]
  GI50: 3.91
HCC1500 cell line, censored GI50 values, value is the negative log10 of mol/L
  GI50: 4.21
HCC1806 cell line, censored GI50 values, value is the negative log10 of mol/L
  GI50: 4.02
HCC1937 cell line, censored GI50 values, value is the negative log10 of mol/L
  GI50: 3.37
HCC1954 cell line, censored GI50 values, value is the negative log10 of mol/L
  GI50: 3.99
[3]
  GI50: 3.12
[4]
  GI50: 3.24
LY2 cell line, censored GI50 values, value is the negative log10 of mol/L
  GI50: 5.01
[5]
  GI50: 3.15
[6]
  GI50: 4.69
MDAMB231 cell line, censored GI50 values, value is the negative log10 of mol/L
  GI50: 3.10
MDAMB468 cell line, censored GI50 values, value is the negative log10 of mol/L
  GI50: 3.22
SKBR3 cell line, censored GI50 values, value is the negative log10 of mol/L
  GI50: 3.66
[7]
  GI50: 3.49
SUM149PT cell line, censored GI50 values, value is the negative log10 of mol/L
  GI50: 4.11
SUM159PT cell line, censored GI50 values, value is the negative log10 of mol/L
  GI50: 4.49
[8]
  GI50: 3.71
[9]
  GI50: 3.13
[10]
  GI50: 3.48
UACC812 cell line, censored GI50 values, value is the negative log10 of mol/L
  GI50: 4.34
ZR75B cell line, censored GI50 values, value is the negative log10 of mol/L
  GI50: 5.16
ZR751 cell line, censored GI50 values, value is the negative log10 of mol/L
  GI50: 5.27
Cell line 600MPE, value is the negative log10 of mol/L
  GI50: 4.11
[11]
  GI50: 5.18
[12]
  GI50: 3.17
[13]
  GI50: 4.48
[14]
  GI50: 3.74
[15]
  GI50: 3.51
[16]
  GI50: 3.72
[17]
  GI50: 4.05
[18]
  GI50: 4.41
[19]
  GI50: 3.69
[20]
  GI50: 3.18
[21]
  GI50: 3.13
[22]
  GI50: 3.77
[23]
  GI50: 4.99
[24]
  GI50: 4.23
[25]
  GI50: 4.59
[26]
  GI50: 3.64
[27]
  GI50: 4.78
[28]
  GI50: 3.42
[29]
  GI50: 3.45
[30]
  GI50: 4.41
[31]
  GI50: 4.39
Cell line MDAMB134V
  GI50: 2.01
[32]
  GI50: 3.11
[33]
  GI50: 3.95
Cell line MDAMB231, value is the negative log10 of mol/L
  GI50: 3.75
[34]
  GI50: 3.84
Cell line MDAMB436
  GI50: 2.97
[35]
  GI50: 4.01
[36]
  GI50: 3.71
[37]
  GI50: 4.48
[38]
  GI50: 4.40
[39]
  GI50: 4.14
Cell line SUM159PT, value is the negative log10 of mol/L
  GI50: 4.68
Cell line SUM185PE
  GI50: 2.53
[40]
  GI50: 3.37
[41]
  GI50: 4.02
[42]
  GI50: 3.30
[43]
  GI50: 4.95
[44]
  GI50: 4.51

## CC(C)(C)c1cc(C=C(C#N)C#N)cc(Br)c1O [AG1024]
[1]
  GI50: 5.21
HCC202 cell line, censored GI50 values, value is the negative log10 of mol/L
  GI50: 4.92
HCC1419 cell line, censored GI50 values, value is the negative log10 of mol/L
  GI50: 4.70
[2]
  GI50: 5.05
[3]
  GI50: 5.11
[4]
  GI50: 5.11
[5]
  GI50: 4.69
[6]
  GI50: 4.82
MDAMB361 cell line, censored GI50 values, value is the negative log10 of mol/L
  GI50: 4.69
[7]
  GI50: 5.45
SUM185PE cell line, censored GI50 values, value is the negative log10 of mol/L
  GI50: 5.57
[8]
  GI50: 5.03
[9]
  GI50: 5.17
[10]
  GI50: 4.68
UACC893 cell line, censored GI50 values, value is the negative log10 of mol/L
  GI50: 4.75
[11]
  GI50: 4.48
Cell line BT20, value is the negative log10 of mol/L
  GI50: 4.48
[12]
  GI50: 4.48
[13]
  GI50: 4.48
[14]
  GI50: 4.48
[15]
  GI50: 4.48
[16]
  GI50: 4.48
[17]
  GI50: 5.21
[18]
  GI50: 4.92
[19]
  GI50: 4.58
[20]
  GI50: 4.48
[21]
  GI50: 4.48
[22]
  GI50: 4.70
[23]
  GI50: 5.05
[24]
  GI50: 4.58
[25]
  GI50: 4.48
[26]
  GI50: 4.48
[27]
  GI50: 4.50
[28]
  GI50: 5.11
[29]
  GI50: 5.11
[30]
  GI50: 4.48
[31]
  GI50: 4.48
Cell line MDAMB134V, value is the negative log10 of mol/L
  GI50: 4.69
[32]
  GI50: 4.48
[33]
  GI50: 4.82
[34]
  GI50: 4.69
Cell line MDAMB415, value is the negative log10 of mol/L
  GI50: 4.48
Cell line MDAMB436, value is the negative log10 of mol/L
  GI50: 4.48
[35]
  GI50: 4.51
[36]
  GI50: 4.48
[37]
  GI50: 4.48
[38]
  GI50: 5.45
[39]
  GI50: 4.48
Cell line SUM185PE, value is the negative log10 of mol/L
  GI50: 5.57
Cell line SUM225CWN, value is the negative log10 of mol/L
  GI50: 5.03
[40]
  GI50: 5.17
Cell line T47D, value is the negative log10 of mol/L
  GI50: 4.68
[41]
  GI50: 4.48
[42]
  GI50: 4.75
[43]
  GI50: 4.48
[44]
  GI50: 4.52
